Laboratory results published in patent US8846652B2, “Therapeutic uses of steroidal compounds” (Hunter-Fleming Limited, priority 2005, dated 2014).
Peptide text beside a SMILES is read from it.

How the values were obtained:
[1] = test system: spared nerve injury (SNI) model of neuropathic pain; assay: Spared nerve injury (SNI) model of neuropathic pain, mechanical allodynia by von Frey filaments; assay type: in vivo, mice; conditions: daily oral gavage for two weeks, SNI lesion on day 8, thresholds measured at 2 pm over 7 days after SNI surgery
Method: All animals were fed standard chow and water ad libitum. Animal care and procedures were performed within the United Kingdom Home Office protocols and guidelines. Age (10-12 weeks, 25-30 g) matched adult mice were used in all experiments (n=8/genotype).
Mice were anaesthetised with Hypnorm (Fentanyl citrate 0.315 mg/ml+Fluanisone 10 mg/ml, Jansson):Hypnovel (Midazolam 5 mg/ml, Roche):water at a ratio of 1:1:2 at 4 μl/g. The recently described SNI model of neuropathic pain was used (Holmes et al (2003) Proc. Natl. Acad. Sci. U.S.A. 100 6180-6185). The spared nerve injury model (SNI), is performed by ligation of two branches of the sciatic nerve after it trifurcates, leaving one branch intact. […]
In all tests, the examiner was blind to the genotype of the mice. Mechanical thresholds were measured with a series of calibrated von Frey filaments (Stoeling) from 0.005 g to a maximum of 3.63 g. […] Mechanical sensitivity was assessed on each hind paw, employing the up-down testing paradigm to determine the threshold force required to elicit a withdrawal response to 50% of stimulations [F. E. Holmes, A. Bacon, R. J. Pope, P. A. Vanderplank, N. C. […]
11β-hydroxy-Δ4-androstene-3,17-dione was administered to 8 adult male mice aged 10-12 weeks of age daily at 9.00 am by oral gavage for two weeks. […] At 2 pm on the days when testing took place, mechanosensory thresholds were measured.

GALR1 = biological target: T1, GALR1 (Homo sapiens, UniProt P47211); conditions: cited from earlier work
T1 sequence (P47211 1-349): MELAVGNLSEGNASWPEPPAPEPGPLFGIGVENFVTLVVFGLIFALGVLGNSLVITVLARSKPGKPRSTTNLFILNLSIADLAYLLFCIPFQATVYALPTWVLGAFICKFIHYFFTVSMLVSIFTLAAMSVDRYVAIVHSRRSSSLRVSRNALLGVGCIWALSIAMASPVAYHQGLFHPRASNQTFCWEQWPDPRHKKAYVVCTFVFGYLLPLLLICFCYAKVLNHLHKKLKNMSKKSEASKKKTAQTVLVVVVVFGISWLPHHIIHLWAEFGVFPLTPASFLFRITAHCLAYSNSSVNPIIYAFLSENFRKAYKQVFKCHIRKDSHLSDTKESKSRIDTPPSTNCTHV

GALR2 = biological target: T2, GALR2 (Homo sapiens, UniProt O43603); conditions: cited from earlier work
T2 sequence (O43603 1-387): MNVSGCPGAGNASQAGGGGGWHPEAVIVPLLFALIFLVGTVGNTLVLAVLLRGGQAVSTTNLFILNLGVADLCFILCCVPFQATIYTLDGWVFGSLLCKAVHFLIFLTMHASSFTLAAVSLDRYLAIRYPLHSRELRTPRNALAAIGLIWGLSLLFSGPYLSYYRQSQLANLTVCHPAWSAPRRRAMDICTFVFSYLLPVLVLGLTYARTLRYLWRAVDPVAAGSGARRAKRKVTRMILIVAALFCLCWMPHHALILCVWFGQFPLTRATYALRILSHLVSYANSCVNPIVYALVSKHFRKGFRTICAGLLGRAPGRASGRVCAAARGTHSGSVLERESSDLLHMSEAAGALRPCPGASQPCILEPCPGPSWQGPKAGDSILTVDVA

Row | SMILES | mechanosensory allodynia (chronic pain behaviour) after SNI surgery [1] | agonistic activity at GALR1 (GALR1) | agonistic activity at GALR2 (GALR2)
1 | C[C@]12CCC(=O)C=C1CC[C@@H]1[C@@H]2[C@@H](O)C[C@]2(C)C(=O)CC[C@@H]12 [11β-hydroxy-Δ4-androstene-3,17-dione] | markedly and significantly attenuated mechanosensory allodynia |  | 
2 | Cc1cc(=O)oc2cc(NC(=O)[C@H](CCCCN)NC(=O)[C@H](CC3CCCCC3)NC(=O)OCC3c4ccccc4-c4ccccc43)ccc12 [galnon] (HELM PEPTIDE1{[O=C(OCC1c2ccccc2-c2ccccc21)[*:2]].[Cha].K.[Cc1cc(=O)oc2cc(N[*:1])ccc12]}$$$$V2.0) |  | equally activates and has agonistic activity | equally activates and has agonistic activity
